According to the supplement of paper PMC8617591:

Legend:
[1] = system: Mycobacterium tuberculosis Erdman (autoluminescent); assay: total FIC50 (Loewe) at 50% inhibition, three-drug combination (log2); higher = more antagonistic
Method: (§1)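 DiaMOND equipotent three-drug combination dose responses (10 doses, 1.5- or 2-fold spacing, centred on IC90) against autoluminescent M. tuberculosis Erdman in 8 in vitro models. Read-out is OD600, or luminescence for the intracellular and dormancy models, normalised to untreated wells. Hill-fit Einf, AUC25 and GRinf are potency metrics; FIC50 and FIC90 are total Loewe fractional inhibitory concentrations as log2 (negative = synergy).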

[2] = system: Mycobacterium tuberculosis Erdman (autoluminescent); assay: total FIC90 (Loewe) at 90% inhibition, three-drug combination (log2); higher = more antagonistic
Method: as §1

[3] = system: Mycobacterium tuberculosis Erdman (autoluminescent); assay: Einf, fitted maximum growth inhibition of three-drug combination (fraction); higher = stronger maximal inhibition
Method: as §1

[4] = system: Mycobacterium tuberculosis Erdman (autoluminescent); assay: AUC25, normalised area under dose response up to IC25 (three-drug combination) (fraction (0-1)); higher = more potent at low dose
Method: as §1

[5] = system: Mycobacterium tuberculosis Erdman (autoluminescent); assay: GRinf, maximum normalised growth rate inhibition (three-drug combination) (unitless (-1 to 1)); higher = less effect (negative = killing)
Method: as §1

CC[C@@H](CO)NCCN[C@@H](CC)CO [ethambutol] + O=[N+]([O-])c1cn2c(n1)OC[C@@H](OCc1ccc(OC(F)(F)F)cc1)C2 [pretomanid] + CO[C@H]1/C=C/O[C@@]2(C)Oc3c(C)c(O)c4c(O)c(c(/C=N/N5CCN(C)CC5)c(O)c4c3C2=O)NC(=O)/C(C)=C\C=C\[C@H](C)[C@H](O)[C@@H](C)[C@@H](O)[C@@H](C)[C@H](OC(C)=O)[C@@H]1C [rifampicin]
Details	AUC25, [4]	Einf, [3]	GRinf, [5]	total FIC50, [1]	total FIC90, [2]
in vitro model: acidic pH 5.7, time point: constant (~7 days, model-specific)	0.116	0.896	-0.0878	-0.207	–
in vitro model: acidic pH 5.7, time point: terminal (~4-5 doublings, model-specific)	0.0422	0.965	-0.0884	-0.118	-0.7
in vitro model: intracellular J774, time point: constant = terminal	–	0.979	-0.423	–	-2.45

Details	AUC25, [4]	Einf, [3]	GRinf, [5]	total FIC50, [1]	total FIC90, [2]
in vitro model: butyrate, time point: constant (~7 days, model-specific)	0.0766	0.908	0.0166	0.153	–
in vitro model: butyrate, time point: terminal (~4-5 doublings, model-specific)	0.075	0.968	-0.0125	-0.0702	-0.43
in vitro model: cholesterol 0.05 mM, time point: constant (~7 days, model-specific)	0.123	0.753	-0.232	0.599	–
in vitro model: cholesterol 0.05 mM, time point: terminal (~4-5 doublings, model-specific)	0.0708	0.852	0.216	0.863	–
in vitro model: cholesterol-high 0.2 mM, time point: constant (~7 days, model-specific)	0.0614	0.857	-0.0797	1.05	–
in vitro model: cholesterol-high 0.2 mM, time point: terminal (~4-5 doublings, model-specific)	0.0471	0.992	-0.568	1.06	0.833
in vitro model: dormancy (butyrate + nitrate, low O2), time point: constant (~7 days, model-specific)	0.102	0.883	0.315	-0.71	–
in vitro model: dormancy (butyrate + nitrate, low O2), time point: terminal (~4-5 doublings, model-specific)	0.085	0.993	-0.16	-0.599	-0.673
in vitro model: standard 7H9 glycerol, time point: constant = terminal	0.0649	0.919	0.0317	-0.222	–
in vitro model: valerate, time point: constant (~7 days, model-specific)	0.0577	0.876	0.0174	0.363	–
in vitro model: valerate, time point: terminal (~4-5 doublings, model-specific)	0.033	0.931	0.0322	0.443	-0.575

CC[C@@H](CO)NCCN[C@@H](CC)CO [ethambutol] + O=[N+]([O-])c1cn2c(n1)OC[C@@H](OCc1ccc(OC(F)(F)F)cc1)C2 [pretomanid] + NC(=O)c1cnccn1 [pyrazinamide]
Details	AUC25, [4]	Einf, [3]	GRinf, [5]	total FIC50, [1]	total FIC90, [2]
in vitro model: acidic pH 5.7, time point: constant (~7 days, model-specific)	0.122	0.735	-0.0977	-0.536	–
in vitro model: acidic pH 5.7, time point: terminal (~4-5 doublings, model-specific)	0.091	0.962	-0.384	0.211	-1.13
in vitro model: intracellular J774, time point: constant = terminal	–	0.983	-0.544	–	-0.753

Details	AUC25, [4]	Einf, [3]	GRinf, [5]	total FIC50, [1]	total FIC90, [2]
in vitro model: butyrate, time point: constant (~7 days, model-specific)	0.0885	0.898	0.0512	0.0336	–
in vitro model: butyrate, time point: terminal (~4-5 doublings, model-specific)	0.0789	0.949	0.0472	0.0804	0.185
in vitro model: cholesterol 0.05 mM, time point: constant (~7 days, model-specific)	0.13	0.709	-0.334	–	–
in vitro model: cholesterol 0.05 mM, time point: terminal (~4-5 doublings, model-specific)	0.129	0.723	-0.277	0.522	–
in vitro model: cholesterol-high 0.2 mM, time point: constant (~7 days, model-specific)	0.0837	0.876	-0.121	0.648	–
in vitro model: cholesterol-high 0.2 mM, time point: terminal (~4-5 doublings, model-specific)	0.0682	0.992	-0.572	0.65	1.05
in vitro model: dormancy (butyrate + nitrate, low O2), time point: constant (~7 days, model-specific)	0.127	0.844	0.4	-0.415	–
in vitro model: dormancy (butyrate + nitrate, low O2), time point: terminal (~4-5 doublings, model-specific)	0.11	0.967	-0.312	0.312	1.35
in vitro model: standard 7H9 glycerol, time point: constant = terminal	0.0755	0.913	0.125	0.461	–
in vitro model: valerate, time point: constant (~7 days, model-specific)	0.0698	0.882	0.0142	-0.111	–
in vitro model: valerate, time point: terminal (~4-5 doublings, model-specific)	0.0514	0.919	0.0593	0.0754	-0.361

NNC(=O)c1ccncc1 [isoniazid] + CC(=O)NC[C@H]1CN(c2ccc(N3CCOCC3)c(F)c2)C(=O)O1 [linezolid] + CO[C@H]1/C=C/O[C@@]2(C)Oc3c(C)c(O)c4c(O)c(c(/C=N/N5CCN(C6CCCC6)CC5)c(O)c4c3C2=O)NC(=O)/C(C)=C\C=C\[C@H](C)[C@H](O)[C@@H](C)[C@@H](O)[C@@H](C)[C@H](OC(C)=O)[C@@H]1C [rifapentine]
Details	AUC25, [4]	Einf, [3]	GRinf, [5]	total FIC50, [1]	total FIC90, [2]
in vitro model: acidic pH 5.7, time point: constant (~7 days, model-specific)	0.0908	0.853	-0.0954	0.653	–
in vitro model: acidic pH 5.7, time point: terminal (~4-5 doublings, model-specific)	0.0757	0.977	-0.138	0.526	0.636
in vitro model: intracellular J774, time point: constant = terminal	–	0.946	-0.138	–	0.00443

Details	AUC25, [4]	Einf, [3]	GRinf, [5]	total FIC50, [1]	total FIC90, [2]
in vitro model: butyrate, time point: constant (~7 days, model-specific)	0.0823	0.894	0.1	0.461	1.07
in vitro model: butyrate, time point: terminal (~4-5 doublings, model-specific)	0.0501	0.94	0.0909	0.377	0.0682
in vitro model: cholesterol 0.05 mM, time point: constant (~7 days, model-specific)	0.153	0.735	-0.233	0.774	–
in vitro model: cholesterol 0.05 mM, time point: terminal (~4-5 doublings, model-specific)	0.125	0.921	-0.273	0.542	0.792
in vitro model: cholesterol-high 0.2 mM, time point: constant (~7 days, model-specific)	0.0853	0.833	-0.0945	0.52	–
in vitro model: cholesterol-high 0.2 mM, time point: terminal (~4-5 doublings, model-specific)	0.093	1	-0.883	0.739	0.834
in vitro model: dormancy (butyrate + nitrate, low O2), time point: constant (~7 days, model-specific)	0.0503	0.879	0.222	1.15	0.705
in vitro model: dormancy (butyrate + nitrate, low O2), time point: terminal (~4-5 doublings, model-specific)	0.0276	0.984	-0.167	0.72	0.385
in vitro model: standard 7H9 glycerol, time point: constant = terminal	0.0681	0.902	0.155	0.53	1.15
in vitro model: valerate, time point: constant (~7 days, model-specific)	0.0749	0.839	0.0814	0.038	–
in vitro model: valerate, time point: terminal (~4-5 doublings, model-specific)	0.0444	0.931	0.0271	0.299	0.267

NNC(=O)c1ccncc1 [isoniazid] + CC(=O)NC[C@H]1CN(c2ccc(N3CCOCC3)c(F)c2)C(=O)O1 [linezolid] + CO[C@H]1/C=C/O[C@@]2(C)Oc3c(C)c(O)c4c(O)c(c(/C=N/N5CCN(C)CC5)c(O)c4c3C2=O)NC(=O)/C(C)=C\C=C\[C@H](C)[C@H](O)[C@@H](C)[C@@H](O)[C@@H](C)[C@H](OC(C)=O)[C@@H]1C [rifampicin]
Details	AUC25, [4]	Einf, [3]	GRinf, [5]	total FIC50, [1]	total FIC90, [2]
in vitro model: acidic pH 5.7, time point: constant (~7 days, model-specific)	0.073	0.841	-0.0845	0.571	–
in vitro model: acidic pH 5.7, time point: terminal (~4-5 doublings, model-specific)	0.0682	0.972	-0.116	0.505	0.335
in vitro model: intracellular J774, time point: constant = terminal	–	0.947	-0.188	–	-0.141

Details	AUC25, [4]	Einf, [3]	GRinf, [5]	total FIC50, [1]	total FIC90, [2]
in vitro model: butyrate, time point: constant (~7 days, model-specific)	0.0943	0.915	0.0298	0.353	0.315
in vitro model: butyrate, time point: terminal (~4-5 doublings, model-specific)	0.0727	0.958	0.0122	0.184	0.0301
in vitro model: cholesterol 0.05 mM, time point: constant (~7 days, model-specific)	0.139	0.691	-0.14	0.356	–
in vitro model: cholesterol 0.05 mM, time point: terminal (~4-5 doublings, model-specific)	0.135	0.916	-0.324	4.8	-0.269
in vitro model: cholesterol-high 0.2 mM, time point: constant (~7 days, model-specific)	0.11	0.956	-0.355	0.569	–
in vitro model: cholesterol-high 0.2 mM, time point: terminal (~4-5 doublings, model-specific)	0.0902	0.997	-0.919	0.831	0.809
in vitro model: dormancy (butyrate + nitrate, low O2), time point: constant (~7 days, model-specific)	0.0701	0.891	0.192	0.857	0.12
in vitro model: dormancy (butyrate + nitrate, low O2), time point: terminal (~4-5 doublings, model-specific)	0.036	0.978	-0.111	0.231	0.0283
in vitro model: standard 7H9 glycerol, time point: constant = terminal	0.0756	0.899	0.148	0.299	-0.589
in vitro model: valerate, time point: constant (~7 days, model-specific)	0.0594	0.862	0.0129	0.491	–
in vitro model: valerate, time point: terminal (~4-5 doublings, model-specific)	0.035	0.934	0.0126	0.502	0.221

NNC(=O)c1ccncc1 [isoniazid] + CC(=O)NC[C@H]1CN(c2ccc(N3CCOCC3)c(F)c2)C(=O)O1 [linezolid] + COc1c(N2C[C@@H]3CCCN[C@@H]3C2)c(F)cc2c(=O)c(C(=O)O)cn(C3CC3)c12 [moxifloxacin]
Details	AUC25, [4]	Einf, [3]	GRinf, [5]	total FIC50, [1]	total FIC90, [2]
in vitro model: acidic pH 5.7, time point: constant (~7 days, model-specific)	0.109	0.747	-0.275	0.122	–
in vitro model: acidic pH 5.7, time point: terminal (~4-5 doublings, model-specific)	0.0728	0.923	-0.258	1.49	0.715
in vitro model: intracellular J774, time point: constant = terminal	–	0.893	-0.0263	–	0.67

Details	AUC25, [4]	Einf, [3]	GRinf, [5]	total FIC50, [1]	total FIC90, [2]
in vitro model: butyrate, time point: constant (~7 days, model-specific)	0.086	0.917	0.00606	0.711	0.963
in vitro model: butyrate, time point: terminal (~4-5 doublings, model-specific)	0.0553	0.956	0.0163	0.753	0.721
in vitro model: cholesterol 0.05 mM, time point: constant (~7 days, model-specific)	0.149	0.654	-0.302	0.796	–
in vitro model: cholesterol 0.05 mM, time point: terminal (~4-5 doublings, model-specific)	0.15	0.909	-0.444	4.95	0.24
in vitro model: cholesterol-high 0.2 mM, time point: constant (~7 days, model-specific)	0.114	0.933	-0.214	0.427	1.53
in vitro model: cholesterol-high 0.2 mM, time point: terminal (~4-5 doublings, model-specific)	0.105	1	-0.842	0.413	0.848
in vitro model: dormancy (butyrate + nitrate, low O2), time point: constant (~7 days, model-specific)	0.0474	0.851	0.271	1.12	0.548
in vitro model: dormancy (butyrate + nitrate, low O2), time point: terminal (~4-5 doublings, model-specific)	0.0316	0.974	-0.0773	1	0.562
in vitro model: standard 7H9 glycerol, time point: constant = terminal	0.0712	0.97	-0.21	0.644	0.854
in vitro model: valerate, time point: constant (~7 days, model-specific)	0.104	0.888	-0.0253	0.337	–
in vitro model: valerate, time point: terminal (~4-5 doublings, model-specific)	0.0614	0.935	-0.00928	0.575	0.805
